Results as given in patent US3997506A (priority 1974, dated 1976).
Several values for one entry are separate records, joined by “and”; a condition that tells them apart may be missing. Equal entries are not always repeated. Where two headings read alike, the source gives them in different places.

Experiments:
[1] = tested on: oedema produced by crystals of urate in the hind paw of the rat; assay type: in vivo, Sprague Dawely female rats; conditions: for % of inhibition of edema / Difference in weight between left and right leg (Average ± standard deviation of mean term): three subcutaneous injections, 6 h after urate
Method: The anti-gout activity has also been studied "in vivo" with the rat by investigating the inhibition of oedema induced in the hind paw through local injection of sodium urate.
8 g of uric acid (puriss Fluka A.G. Buchs S.G.) were added to 1,600 ml of boiling water and the pH of the solution was adjusted to 7.4 with 20 % of sodium hydroxyde NaOH. The solution was heated up to 95° C and allowed to cool down to the room temperature of the laboratory while being slightly stirred for 7 to 8 hours. The crystals of sodium urate were recovered through filtration on a Buchner filter and air-dried. The formation of crystals was confirmed through microscopic examination.
Sprague Dawely female rats having an average weight of 200 g were used for this investigation.
The oedema was produced through injection into the plantar arch of the left hind foot or leg of 0.1 ml of a suspension of crystals of sodium urate in a physiological salt solution (100 mg/ml). An equal volume of saline solution was injected into the right foot or leg as a control.
Colchicine and the derivative in ethanolic solution were injected through the subcutaneous way.
Three injections with the same dose were carried out 0.2 and 4 hours after the injection of crystals of urate. The volume injected ranged from 3.5 to 6 ml/kg each time. The reference rats also received three injections of a solution containing the same concentration in ethanol.
Six hours after the injection of the crystals of urate, the rats were killed through decapitation, the hind legs were amputated at the ankle and weighed.

human leucocytes [2] = conditions: 0.01 μg/ml to 10 μg/ml; up to 30 hours; no PHA
Method: (§1) The concentrations of colchicine and of the derivative were prepared through dilution of a concentrated solution in order to add a same volume of methanol to each culture.
The doses were the following:
C1 = 0.01 μg/ml of culture
C2 = 0.1 μg/ml of culture
C3 = 0.5 μg/ml of culture
C4 = 1.0 μg/ml of culture
C5 = 2.5 μg/ml of culture
C6 = 10.0 μg/ml of culture.
(§2) Samples of culture with or without addition of methanol served as references.

leucocytes from rats [3] = conditions: individual rat, 2 mg/kg oral
Method: (§3) These rats had been kept fasting from the evening before.
(§4) During this experimentation a counting of the leucocytes as well as a leucocytic distribution were made before administration and 6 hours after administration of the substances. Moreover as a cytoxicity index, a measurement of the viability of leucocytes obtained 6 hours after administration was carried out by means of the staining test with Trypan blue.

leucocytes from rats [4] = conditions: 6 hours after administration, 2 mg/kg oral
Method: as §3, §4

leucocytes from rats [5] = assay type: in vivo, Sprague Dawley SIV 50 he-rats; conditions: 2 mg/kg oral
Method: Blood (about 0.2 ml) obtained through puncture of the retro-orbital veinous sinus was collected under sterile conditions prior to the administration of the substances and 6 hours later.
Then one proceeded with carrying out a micro-culture of the leucocytes in the presence of phytohemagglutinin.

human leucocytes [6] = tested on: human leucocytes
Method: Contrary to the previous experiment in which different volumes of a solution of a given concentration have been added, in this experiment the various concentrations were prepared through dilution of a concentrated solution in order to add a same volume of methanol to each culture.

[7] = tested on: phagocytosis by peritoneal macrophages of mice; assay type: cell-based; conditions: for % phagocytosis with respect to controls (= 100%): 80 min
Method: The macrophages the proliferation of which in the animal has been previously stimulated in vivo by an intraperitoneal injection of proteose-peptone (Difco) are collected or gathered in a sterile manner by washing the peritoneal cavity. They are then suspended in a culture medium consisting of a basal Eagle medium (B-D Merieux) admixed with 20 % of serum of foetal calf (Flow Laboratories) and with 100 U/ml of penicillin and of 50 μg/ml of streptomicin. They are distributed at the rate of 5×10^6 cells per dish into Petri Falcon dishes of 35 mm in diameter wherein they will form a monocellular layer. They are cultivated at 37° C in a water-saturated atmosphere of air and of 5 % carbon dioxide CO2.
For the measurement of phagocytosis 48 hours cultures (experiments I, II, IV) or 72 hours cultures (experiments II, V) have been used. […] The volume of methanol added to each culture was equal to 10 μl except for experiment I (25 μl).

in vitro = conditions: human, leucocytes, % of dead cells (Average of 2 determinations), no PHA
Method: as §1
The doses were the following:
C1 = 0.01 μg/ml of culture
C2 = 0.1 μg/ml of culture
C3 = 0.5 μg/ml of culture
C4 = 1.0 μg/ml of culture
C5 = 2.5 μg/ml of culture
C6 = 10.0 μg/ml of culture.
as §2

[8] = tested on: Sprague Dawley SIV 50 rat; assay type: in vivo, male and female Sprague Dawley SIV 50 rat; conditions: for Death rate: 10 days
Text: The high toxicity of the new derivative of colchicine (N-desacetyl-N-adamantoyl-thiocolchicine) has been investigated through the oral way with the male and female Sprague Dawley SIV 50 rat having an average weight of 100 g.
Two experiments have been carried out. In the first one, only the high toxicity of the derivative has been studied; in the second one, the high toxicity of the derivative has been compared with that of colchicine.
The derivative and colchicine have been administered in suspension in propylene glycol through an oesophageal tube at the rate of 2 ml per rat for the first experiment and of 1 ml for the second one.
The animals have been observed for 10 days.

leucocytes from rats [9] = conditions: individual rat, 2 mg/kg oral; remark: listed apart in the source
Method: as §3
Two groups of rats served as references.
The first group consisted of rats which were given no substance. The second group consisted of rats which were given a same volume (7.5 ml/kg) of propylene glycol as that received by the treated animals.
as §4

[10] = 6 hours after administration, individual rat, 2 mg/kg
[11] = before administration, individual rat, 2 mg/kg

COc1cc2c(c(OC)c1OC)-c1ccc(SC)c(=O)cc1C(NC(=O)C13CC4CC(CC(C4)C1)C3)CC2 (single isomer, unassigned) [Derivative, N-desacetyl-N-adamantoyl-thiocolchicine]
% of inhibition of edema ([1]; 2 mg/kg): 10% | Difference in weight between left and right leg (Average ± standard deviation of mean term) ([1]; 2 mg/kg): 0.264 ± 0.031 g | % of inhibition of edema ([1]; 6 mg/kg): 50% | Difference in weight between left and right leg (Average ± standard deviation of mean term) ([1]; 6 mg/kg): 0.145 ± 0.019 g | protection against the oedema produced by crystals of urate (in words) ([1]; colchicine 2 mg/kg, derivative 6 mg/kg): significant protection | cytotoxicity (in words) (human leucocytes [2]): no cytotoxicity is detectable | Basophils (leucocytes from rats [3]; 6 hours after administration): 0 | Eosinophils (leucocytes from rats [3]; 6 hours after administration): 0 | Lymphocytes (leucocytes from rats [3]; 6 hours after administration, 2 mg/kg): 94 and 82 and 86 | Basophils (leucocytes from rats [3]; before administration): 0 | Eosinophils (leucocytes from rats [3]; before administration): 0 | Lymphocytes (leucocytes from rats [3]; before administration, 2 mg/kg): 84 and 90 and 82 | Monocytes (leucocytes from rats [3]; before administration, 2 mg/kg): 2 and 1 | Neutrophils with segmented nucleus (leucocytes from rats [3]; before administration, 2 mg/kg): 12 and 8 | cytotoxic effect (in words) (leucocytes from rats [4]): no cytotoxic effect has been noticed | % of dead cells (leucocytes from rats [4]; individual rat, 2 mg/kg, 360 min): 2% and 1% and 0% | embodied radioactivity, mean (leucocytes from rats [5]; 6 hours after administration, group mean): 10,664±2,087 cpm | cpm / number of lymphocytes, mean (leucocytes from rats [5]; 6 hours after administration, group mean, factor and spread printed on following lines): 4.71 × 10^-^2 cpm/number of lymphoc | Number of lymphocytes/culture (leucocytes from rats [5]; [10]): 172,500 lymphocytes/culture and 244,760 lymphocytes/culture and 261,900 lymphocytes/culture | embodied radioactivity (leucocytes from rats [5]; [10]): 8,466 cpm and 8,690 cpm and 14,836 cpm | cpm / number of lymphocytes (immunity response) (leucocytes from rats [5]; 6 hours after administration, individual rat, factor × 10^-^2, 2 mg/kg): 4.91 × 10^-^2 cpm/number of lymphoc and 3.55 × 10^-^2 cpm/number of lymphoc and 5.66 × 10^-^2 cpm/number of lymphoc | embodied radioactivity, mean (leucocytes from rats [5]; before administration, group mean): 12,227±2,228 cpm | Number of lymphocytes/culture (leucocytes from rats [5]; [11]): 132,480 lymphocytes/culture and 147,000 lymphocytes/culture and 271,460 lymphocytes/culture and 257,060 lymphocytes/culture | embodied radioactivity (leucocytes from rats [5]; [11]): 7,384 cpm and 10,195 cpm and 7,709 cpm and 13,619 cpm | number of leucocytes with increasing amounts (in words) (human leucocytes [6]; Table 9, 72 hours): still further lowered with the same amounts of the derivative | Count of leucocytes after 72 hours (human leucocytes [6]; Table 9, C1 = 2.5 μg/ml, control 412,500): 487,000 | Count of leucocytes after 72 hours (human leucocytes [6]; Table 9, C3 = 10 μg/ml, control 412,500): 360,000 | Count of leucocytes after 72 hours (human leucocytes [6]; Table 9, C5 = 30 μg/ml, control 412,500): 180,000 | Count of leucocytes after 72 hours (human leucocytes [6]; Table 9, C6 = 50 μg/ml, control 412,500): 157,000 | Count of leucocytes after 72 hours (human leucocytes [6]; Table 11, Culture I, C3 = 10 μg/ml): 430,000 | Count of leucocytes after 72 hours (human leucocytes [6]; Table 11, Culture I, C6 = 50 μg/ml): 515,000 | Count of leucocytes after 72 hours (human leucocytes [6]; Table 11, Culture II, C1 = 2.5 μg/ml): 140,000 | Count of leucocytes after 72 hours (human leucocytes [6]; Table 11, Culture II, C3 = 10 μg/ml): 200,000 | Count of leucocytes after 72 hours (human leucocytes [6]; Table 11, Culture II, C5 = 30 μg/ml): 245,000 | Count of leucocytes after 72 hours (human leucocytes [6]; Table 11, Culture II, C6 = 50 μg/ml (two values given)): 290,000 and 345,000 | number of leucocytes in absence or presence of substance (in words) (human leucocytes [6]; Table 11, very approximative): remain substantially the same | inhibition of phagocytosis ([7]; 0.004 μg): 10% | % phagocytosis with respect to controls (= 100%) ([7]; 0.004 μg, Experimentation III): 93.8% | % phagocytosis with respect to controls (= 100%) ([7]; 0.004 μg, Experimentation IV): 85.8% | % phagocytosis with respect to controls (= 100%) ([7]; 0.04 μg, Experimentation III): 84.5% | % phagocytosis with respect to controls (= 100%) ([7]; 0.04 μg, Experimentation IV): 85.9% | % phagocytosis with respect to controls (= 100%) ([7]; 0.04 μg, Experimentation V): 89.9% | % phagocytosis with respect to controls (= 100%) ([7]; 0.4 μg, Experimentation III): 72.8% | % phagocytosis with respect to controls (= 100%) ([7]; 0.4 μg, Experimentation IV): 77.6% | % phagocytosis with respect to controls (= 100%) ([7]; 0.4 μg, Experimentation V): 76.2% | inhibition of phagocytosis ([7]; 4 μg): 65% | % phagocytosis with respect to controls (= 100%) ([7]; 4 μg, Experimentation II): 22.5% | % phagocytosis with respect to controls (= 100%) ([7]; 4 μg, Experimentation III): 33.1% | % phagocytosis with respect to controls (= 100%) ([7]; 4 μg, Experimentation IV): 42.5% | % phagocytosis with respect to controls (= 100%) ([7]; 4 μg, Experimentation V): 39.3% | % phagocytosis with respect to controls (= 100%) ([7]; 5 μg, Experimentation II): 25.9% | % phagocytosis with respect to controls (= 100%) ([7]; 10 μg, Experimentation II): 25.5% | % phagocytosis with respect to controls (= 100%) ([7]; 12.5 μg, Experimentation I): 46.2% | % phagocytosis with respect to controls (= 100%) ([7]; 20 μg, Experimentation II): 31.3% | % phagocytosis with respect to controls (= 100%) ([7]; 30 μg, Experimentation II): 31.1% | % phagocytosis with respect to controls (= 100%) ([7]; 40 μg, Experimentation II): 31.0% | % phagocytosis with respect to controls (= 100%) ([7]; 40 μg, Experimentation III): 43.7% | % phagocytosis with respect to controls (= 100%) ([7]; 40 μg, Experimentation IV): 48.4% | inhibition of phagocytosis of the red blood-corpuscles by the macrophages (in words) ([7]; compared with colchicine): will inhibit phagocytosis of the red blood-corpuscles by the macrophages nearly as colchicine would do | cytotoxicity at 6 h (in vitro; C1 = 0.01 μg/ml): 1% | cytotoxicity at 6 h (in vitro; C2 = 0.1 μg/ml): 1% | cytotoxicity at 6 h (in vitro; C3 = 0.5 μg/ml): 0% | cytotoxicity at 6 h (in vitro; C4 = 1.0 μg/ml): 1% | cytotoxicity at 6 h (in vitro; C5 = 2.5 μg/ml): 1% | cytotoxicity at 6 h (in vitro; C6 = 10.0 μg/ml): 1% | cytotoxicity at 30 h (in vitro; C1 = 0.01 μg/ml): 64% | cytotoxicity at 30 h (in vitro; C2 = 0.1 μg/ml): 54% | cytotoxicity at 30 h (in vitro; C3 = 0.5 μg/ml): 50% | cytotoxicity at 30 h (in vitro; C4 = 1.0 μg/ml): 49% | cytotoxicity at 30 h (in vitro; C5 = 2.5 μg/ml): 45% | cytotoxicity at 30 h (in vitro; C6 = 10.0 μg/ml): 67% | cytotoxicity at 48 h (in vitro; C1 = 0.01 μg/ml): 93% | cytotoxicity at 48 h (in vitro; C2 = 0.1 μg/ml): 95% | cytotoxicity at 48 h (in vitro; C3 = 0.5 μg/ml): 91% | cytotoxicity at 48 h (in vitro; C4 = 1.0 μg/ml): 94% | cytotoxicity at 48 h (in vitro; C5 = 2.5 μg/ml): 88% | cytotoxicity at 48 h (in vitro; C6 = 10.0 μg/ml): 91% | deaths (in words) ([8]; 3 g/kg): no death has been detected | Death rate ([8]; first experiment, 2.000 mg/kg oral): 0/10 | Death rate ([8]; first experiment, 3.000 mg/kg oral): 0/10 | Death rate ([8]; second experiment, 100 mg/kg oral): 0/6 | Death rate ([8]; second experiment, 500 mg/kg oral): 0/6 | Death rate ([8]; second experiment, 1,000 mg/kg oral): 0/6 | Death rate ([8]; second experiment, 2,000 mg/kg oral): 0/6 | Death rate ([8]; second experiment, 3,000 mg/kg oral): 0/6 | Leucocytes / mm^3 (leucocytes from rats [9]; experiment 1, 6 hours after administration, 2 mg/kg): 9,050 / mm^3 and 8,450 / mm^3 and 9,350 / mm^3 | Leucocytes / mm^3 (leucocytes from rats [9]; experiment 1, before administration, 2 mg/kg): 9,050 / mm^3 and 12,250 / mm^3 and 17,525 / mm^3 | Leucocytes / mm^3 (leucocytes from rats [9]; experiment 2, 6 hours after administration): 5,400 / mm^3 | Leucocytes / mm^3 (leucocytes from rats [9]; experiment 2, before administration, 2 mg/kg): 5,900 / mm^3 and 9,350 / mm^3 | Leucocytes / mm^3 (leucocytes from rats [9]; experiment 3, 6 hours after administration): 13,500 / mm^3 | Leucocytes / mm^3 (leucocytes from rats [9]; experiment 3, before administration, 2 mg/kg): 13,250 / mm^3 and 7,200 / mm^3
